In patent US8669378B2, “Process for synthesizing epicconone analogs” (Universite de Rouen, priority 2009, dated 2014):

Legend:
[1] = Absorbance of the adducts with butylamine in acetonitrile; assay type: physicochemical; conditions: Bioconjugated molecule (BuNH2) in CH3CN; for λ UV (nm), second maximum: longer-wavelength absorption maximum, used for excitation; for λ UV (nm), first maximum: shorter-wavelength absorption maximum
Experimental: (§1) Apparatus: • Acetonitrile: VWR HPLC quality • Micropipette: 5 μl, 10 μl, 200 μl, 1000 μl, • Eppendorf: Safe lock tube PCR • UV cuvette: Varian-Quartz 10 mm thick • Fluorescence cuvette: Hellma-Quartz 10 mm thick • Vortex: Bender & Hobein-Genie 2 • Centrifuge: Baky Bug • Absorbance spectrophotometer: Varian-Cary 50 scan • Fluorescence spectrophotometer: Varian-Cary Eclipse • Thermostated bath: Varian-Cary single cell peltier accessory Stock Solution:
(§2) Approximately exactly 1 to 2 mg of compound Ia-Io are weighed out in a 1.5 mL Eppendorf tube. The stock solutions are then prepared by adding exactly 1 mL of acetonitrile and the Eppendorf tubes are then stored protected from light.
30 μl of stock solution are placed in a 1.5 mL Eppendorf tube. At room temperature, 10 μl (or 30 μl in the case of Ik) of a 0.15 M solution of butylamine/acetonitrile are added and the medium is stirred by vortex and then centrifuged. After diluting to 1 mL by adding 960 μl of acetonitrile (or 940 μl in the case of Ik), the clear solution is transferred into a UV cuvette and then made up to 2 mL with acetonitrile. The analysis is then performed after producing a “blank” spectrum with a pure acetonitrile solution.

[2] = Fluorescence of the adducts with butylamine in acetonitrile; assay type: physicochemical; parameters: Δ Stokes: unit not given here; conditions: Bioconjugated molecule (BuNH2) in CH3CN; for Δ Stokes: emission minus excitation wavelength; for λ fluo (λ excitation) (nm): excitation at maximum-absorption wavelength; for Intensity normalized to 50 μM: fluorescence intensity
Experimental: as §1, §2
Two protocols were implemented for the fluorescence tests. • For compounds Ii-Ik: 125 μL of the preceding solution (absorbance solution) are diluted to 1.25 mL by adding 1125 μl of acetonitrile to a fluorescence cuvette. The analysis is then performed on the fluorescence spectrophotometer by excitation at the respective maximum-absorption wavelengths. • For compounds Ia-Ih and Il-Io: 1250 μl of the preceding solution (absorbance) are placed in a fluorescence cuvette. The analysis is then performed on the fluorescence spectrophotometer by excitation at the respective maximum-absorption wavelengths.

| λ UV (nm), second maximum [1] [nm] | λ UV (nm), first maximum [1] [nm] | Δ Stokes [2] | λ fluo (λ excitation) (nm) [2] [nm] | Intensity normalized to 50 μM [2] | SMILES |
| --- | --- | --- | --- | --- | --- |
| 472 | 351 | 113 | 585 | 98 | CC1CC2=CC3=C(C(=O)c4ccccc4)C(=O)OC3(C)C(=O)C2=CO1 (centres unmarked) [Ia, 3-benzoyl-6,9a-dimethyl-5,6-dihydro-9aH-furo[3,2-g]isochromene-2,9-dione] |
| 452 | 351 | 134 | 586 | 205 | COc1ccc(C(=O)C2=C3C=C4CC(C)OC=C4C(=O)C3(C)OC2=O)cc1 (centres unmarked) [Ib, 3-(4-methoxybenzoyl)-6,9a-dimethyl-5,6-dihydro-9aH-furo[3,2-g]isochromene-2,9-dione] |
| 465 | 352 | 128 | 593 | 193 | CC1CC2=CC3=C(C(=O)c4ccco4)C(=O)OC3(C)C(=O)C2=CO1 (centres unmarked) [Ic, 3-(furan-2-carbonyl)-6,9a-dimethyl-5,6-dihydro-9aH-furo[3,2-g]isochromene-2,9-dione] |
| 469 | 351 | 120 | 589 | 147 | COc1ccccc1C(=O)C1=C2C=C3CC(C)OC=C3C(=O)C2(C)OC1=O (centres unmarked) [If, 3-(2-methoxybenzoyl)-6,9a-dimethyl-5,6-dihydro-9aH-furo[3,2-g]isochromene-2,9-dione] |
| 463 | 350 | 134 | 597 | 32 | CC1CC2=CC3=C(C(=O)c4ccccc4O)C(=O)OC3(C)C(=O)C2=CO1 (centres unmarked) [Ig, 3-(2-hydroxybenzoyl)-6,9a-dimethyl-5,6-dihydro-9aH-furo[3,2-g]isochromene-2,9-dione] |

More lines, now with the values behind:

| SMILES | λ UV (nm), second maximum [1] [nm] | λ UV (nm), first maximum [1] [nm] | Δ Stokes [2] | λ fluo (λ excitation) (nm) [2] [nm] | Intensity normalized to 50 μM [2] |
| --- | --- | --- | --- | --- | --- |
| CC1CC2=CC3=C(C(=O)c4ccc5ccccc5c4)C(=O)OC3(C)C(=O)C2=CO1 (centres unmarked) [Id, 3-(2-naphthoyl)-6,9a-dimethyl-5,6-dihydro-9aH-furo[3,2-g]isochromene-2,9-dione] | 464 | 351 | 106 | 570 | 173 |
| COCCOCCOc1ccc(C(=O)C2=C3C=C4CC(C)OC=C4C(=O)C3(C)OC2=O)cc1 (centres unmarked) [Ie, 3-(4-(2-(2-methoxyethoxy)ethoxy)benzoyl)-6,9a-dimethyl-5,6-dihydro-9aH-furo[3,2-g]isochromene-2,9-dione] | 453 | 349 | 137 | 590 | 120 |
| COc1ccc(C(=O)C2=C3C=C4CC(C)(C)OC=C4C(=O)C3(C)OC2=O)cc1 (centres unmarked) [Ih, 3-(4-methoxybenzoyl)-6,6,9a-trimethyl-5,6-dihydro-9aH-furo[3,2-g]isochromene-2,9-dione] | 460 | 354 | 130 | 590 | 155 |
| COc1ccc(C(=O)C(C)C(=O)C2=C3C=C4CC(C)(C)OC=C4C(=O)C3(C)OC2=O)cc1 (centres unmarked) [Il, 3-(3-(4-methoxyphenyl)-2-methyl-3-oxopropanoyl)-6,6,9a-trimethyl-5,6-dihydro-9aH-furo[3,2-g]isochromene-2,9-dione] | 498 | 350 | 90 | 588 | 264 |
| CC(C(=O)C1=C2C=C3CC(C)(C)OC=C3C(=O)C2(C)OC1=O)C(=O)c1ccccc1 (centres unmarked) [Im, 6,6,9a-trimethyl-3-(2-methyl-3-oxo-3-phenylpropanoyl)-5,6-dihydro-9aH-furo[3,2-g]isochromene-2,9-dione] | 489 | 351 | 102 | 591 | 202 |
